Laboratory results from ChEMBL document CHEMBL3044555, “Metabolism of thymol and trans-anethole in larvae of Spodoptera litura and Trichoplusia ni (Lepidoptera: Noctuidae)” (J Agric Food Chem, 2004).

Columns and labels:
[1] = Drug excretion in 80 last instar Trichoplusia ni (cabbage looper) larvae feces assessed as thymol 3-O-beta-glucoside at 0.1 % fwt, po measured after 3 days by TLC analysis; format: ADME, organism-based; conditions: in vivo, 72 h
[2] = Drug excretion in 80 last instar Spodoptera litura larvae feces assessed as thymol 3-O-beta-glucoside at 0.1 % fwt, po measured after 3 days by TLC analysis; format: ADME, organism-based; conditions: in vivo, 72 h
[3] = Drug excretion in 80 last instar Trichoplusia ni (cabbage looper) larvae feces assessed as unchanged parent compound at 0.1 % fwt, po measured after 3 days by 1H/13C NMR analysis; format: ADME, organism-based; conditions: in vivo, 72 h
[4] = Drug excretion in 80 last instar Trichoplusia ni (cabbage looper) larvae feces assessed as thymol 3-O-beta-glucoside at 0.1 % fwt, po measured after 3 days by 1H/13C NMR analysis; format: ADME, organism-based; conditions: in vivo, 72 h
[5] = Drug excretion in 80 last instar Spodoptera litura larvae feces assessed as unchanged parent compound at 0.1 % fwt, po measured after 3 days by 1H/13C analysis; format: ADME, organism-based; conditions: in vivo, 72 h
[6] = Drug excretion in 80 last instar Spodoptera litura larvae feces assessed as thymol 3-O-beta-glucoside at 0.1 % fwt, po measured after 3 days by 1H/13C NMR analysis; format: ADME, organism-based; conditions: in vivo, 72 h
[7] = Drug excretion in 30 last instar Trichoplusia ni (cabbage looper) larvae feces assessed as thymol 3-O-beta-glucoside at 100 ug administered topically on abdominal terga by TLC analysis; format: ADME; conditions: in vivo, topical_or_ocular
[8] = Drug excretion in 80 last instar Spodoptera litura larvae feces assessed as side chain methyl group hydroxylated compound on at 0.1 % fwt, po by TLC analysis; format: ADME, organism-based; conditions: in vivo
[9] = Drug excretion in 80 last instar Trichoplusia ni (cabbage looper) larvae feces assessed as side chain methyl group hydroxylated compound on at 0.1 % fwt, po by TLC analysis; format: ADME, organism-based; conditions: in vivo
[10] = Drug excretion in 80 last instar Trichoplusia ni (cabbage looper) larvae feces assessed as side chain methyl group hydroxylated compound on at 0.1 % fwt, po by 1H/13C NMR analysis; format: ADME, organism-based; conditions: in vivo

Row | Drug excretion [1] | Drug excretion [2] | Drug excretion [4] | Drug excretion [5] | Drug excretion [6] | Drug excretion [7] | Compound | Drug excretion [3] | Drug excretion [8] | Drug excretion [9] | Drug excretion [10]
1 | 3.2 mg | 3.2 mg | Active | Active | Active | Active | Cc1ccc(C(C)C)c(O)c1 [THYMOL] | Active | – | – | –
2 | – | – | – | – | – | – | C/C=C/c1ccc(OC)cc1 [ANETHOLE] | Not Active | 5.8 mg | 5.8 mg | Active
